In US20210070748A1, “INHIBITORS OF BRUTONS TYROSINE KINASE” (Pharmacyclics LLC, priority 2015, published 2021):
pIC50: −log10 of the molar value. Structures can show the parent of a compound that is named as a salt. Where two headings read alike, the source gives them in different places.

Key:
Type in all cases: biochemical
BTK-WT = biological target: T1, BTK-WT (Homo sapiens, UniProt Q06187); experiment: Btk in vitro inhibitory activity (one of Method A TR-FRET, Method B electrophoretic mobility shift, Method C radiometric filter binding); conditions: read-out: BTK-WT (IC50)
T1 construct: purified from insect cells as a full-length construct containing an N-terminal 6X-His tag; His6 (N); made in house; host or cells: insect cells (baculovirus Sf21 in Method B)

LCK = LCK (Homo sapiens, UniProt P06239); experiment: Inhibition of a panel of kinases, in vitro HotSpot kinase assay: LCK; conditions: Table 10, Formula A-I; 1 μM ATP; read-out: LCK (IC50)
JAK3 = biological target: T2, JAK3 (Homo sapiens, UniProt P52333); experiment: Inhibition of a panel of kinases, in vitro HotSpot kinase assay: JAK3; conditions: 1 μM ATP, read-out: JAK3 (IC50)
T2 sequence (P52333 1-1124): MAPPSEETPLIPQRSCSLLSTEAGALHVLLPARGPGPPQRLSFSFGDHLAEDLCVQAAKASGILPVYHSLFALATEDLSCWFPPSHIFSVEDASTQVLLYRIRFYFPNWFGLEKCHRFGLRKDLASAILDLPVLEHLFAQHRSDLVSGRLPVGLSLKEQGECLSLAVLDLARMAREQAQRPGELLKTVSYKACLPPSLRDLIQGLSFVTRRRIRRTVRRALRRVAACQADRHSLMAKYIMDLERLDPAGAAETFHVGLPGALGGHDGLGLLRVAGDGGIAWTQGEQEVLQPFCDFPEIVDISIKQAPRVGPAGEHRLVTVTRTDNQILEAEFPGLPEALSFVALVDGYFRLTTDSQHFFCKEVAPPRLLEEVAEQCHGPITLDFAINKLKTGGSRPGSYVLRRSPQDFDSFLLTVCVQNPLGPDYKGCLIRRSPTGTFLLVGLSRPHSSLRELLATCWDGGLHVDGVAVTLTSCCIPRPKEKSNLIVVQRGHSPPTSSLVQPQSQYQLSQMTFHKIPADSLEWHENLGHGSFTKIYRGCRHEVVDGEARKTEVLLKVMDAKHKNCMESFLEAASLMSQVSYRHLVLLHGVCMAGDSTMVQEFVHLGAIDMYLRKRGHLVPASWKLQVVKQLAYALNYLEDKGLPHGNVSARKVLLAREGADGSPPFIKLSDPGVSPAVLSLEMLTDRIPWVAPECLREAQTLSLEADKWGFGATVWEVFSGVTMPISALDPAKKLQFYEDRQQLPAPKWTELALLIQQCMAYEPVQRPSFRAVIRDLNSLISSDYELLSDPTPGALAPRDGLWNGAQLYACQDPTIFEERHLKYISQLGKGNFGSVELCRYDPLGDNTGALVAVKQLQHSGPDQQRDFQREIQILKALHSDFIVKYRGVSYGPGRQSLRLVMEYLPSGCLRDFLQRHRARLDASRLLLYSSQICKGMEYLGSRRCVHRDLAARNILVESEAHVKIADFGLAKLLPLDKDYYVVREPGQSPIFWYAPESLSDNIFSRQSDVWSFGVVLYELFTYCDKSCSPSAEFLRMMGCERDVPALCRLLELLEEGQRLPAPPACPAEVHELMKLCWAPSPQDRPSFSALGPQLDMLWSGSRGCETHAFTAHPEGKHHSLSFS

LCK, sequence (P06239 whole entry): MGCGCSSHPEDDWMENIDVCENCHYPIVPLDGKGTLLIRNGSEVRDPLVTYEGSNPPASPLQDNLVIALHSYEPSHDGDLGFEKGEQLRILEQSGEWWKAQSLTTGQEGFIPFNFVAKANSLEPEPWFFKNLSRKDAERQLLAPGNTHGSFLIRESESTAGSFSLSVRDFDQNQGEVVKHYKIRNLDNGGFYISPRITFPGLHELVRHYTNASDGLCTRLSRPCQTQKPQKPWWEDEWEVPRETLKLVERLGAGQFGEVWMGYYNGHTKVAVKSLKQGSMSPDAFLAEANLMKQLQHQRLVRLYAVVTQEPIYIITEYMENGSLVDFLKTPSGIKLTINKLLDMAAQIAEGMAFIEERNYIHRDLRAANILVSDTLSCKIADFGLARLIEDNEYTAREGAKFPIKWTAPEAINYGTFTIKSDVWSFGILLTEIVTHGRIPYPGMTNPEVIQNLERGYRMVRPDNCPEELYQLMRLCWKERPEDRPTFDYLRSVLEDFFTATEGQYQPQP
T1 sequence (Q06187 whole entry): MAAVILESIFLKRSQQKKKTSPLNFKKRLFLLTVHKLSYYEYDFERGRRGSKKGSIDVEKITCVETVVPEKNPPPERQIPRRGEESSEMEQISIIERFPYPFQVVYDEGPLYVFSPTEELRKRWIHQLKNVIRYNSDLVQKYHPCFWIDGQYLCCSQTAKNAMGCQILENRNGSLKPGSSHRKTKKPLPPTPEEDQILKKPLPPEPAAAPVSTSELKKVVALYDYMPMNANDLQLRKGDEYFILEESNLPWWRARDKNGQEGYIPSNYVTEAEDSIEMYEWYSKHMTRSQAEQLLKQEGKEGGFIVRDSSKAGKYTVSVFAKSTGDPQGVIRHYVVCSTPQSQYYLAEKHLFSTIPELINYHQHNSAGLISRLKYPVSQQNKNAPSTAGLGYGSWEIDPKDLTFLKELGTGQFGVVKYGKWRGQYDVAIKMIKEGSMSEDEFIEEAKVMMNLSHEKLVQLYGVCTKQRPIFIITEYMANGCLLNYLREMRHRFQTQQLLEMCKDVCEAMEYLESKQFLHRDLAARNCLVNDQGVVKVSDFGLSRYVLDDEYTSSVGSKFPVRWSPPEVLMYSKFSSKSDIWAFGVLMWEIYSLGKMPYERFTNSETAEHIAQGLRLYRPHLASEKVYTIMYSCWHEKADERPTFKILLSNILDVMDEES

SMILES: NC(=O)c1ncc(N2CCC[C@@H](NC(=O)Nc3cccnc3)C2)nc1Nc1ccc(C2CCN(C3CCCC3)CC2)cc1 [Example A-1, 3-{[4-(1-cyclopentylpiperidin-4-yl)phenyl]amino)-5-[(3R)-3-([(pyridin-3-yl)carbamoyl]amino}piperidin-1-yl]pyrazine-2-carboxamide]
- pIC50 (BTK-WT; Table 10, Formula A-I): ≥ 7.00
- pIC50 (LCK): > 7.00

SMILES: NC(=O)c1ncc(N2CCC[C@@H](NC(=O)Nc3ccccc3)C2)nc1Nc1ccc(C2CCN(C3CCCC3)CC2)cc1 [Example A-2, 3-{[4-(1-cyclopentylpiperidin-4-yl)phenyl]amino}-5-[(3R)-3-[(phenylcarbamoyl)amino]piperidin-1-yl]pyrazine-2-carboxamide hydrochloride]
- pIC50 (BTK-WT; Table 10, Formula A-I): ≥ 7.00
- pIC50 (JAK3; Table 10, Formula A-I): 6.00 to 7.00
- pIC50 (LCK): > 7.00

SMILES: NC(=O)c1ncc(N2CCC[C@@H](NC(=O)NC3CCCCC3)C2)nc1Nc1ccc(C2CCN(C3CCCC3)CC2)cc1 [Example A-3, 5-[(3R)-3-[(cyclohexylcarbamoyl)amino]piperidin-1-yl]-3-{[4-(1-cyclopentylpiperidin-4-yl)phenyl]amino}pyrazine-2-carboxamide]
- pIC50 (BTK-WT; Table 10, Formula A-I): ≥ 7.00
- pIC50 (LCK): 6.00 to 7.00

SMILES: Cc1cccc(NC(=O)N[C@@H]2CCCN(c3cnc(C(N)=O)c(Nc4ccc(C5CCN(C6CCCC6)CC5)cc4)n3)C2)c1 [Example A-4, 3-{[4-(1-cyclopentylpiperidin-4-yl)phenyl]amino}-5-[(3R)-3-{[(3-methylphenyl)carbamoyl]amino}piperidin-1-yl]pyrazine-2-carboxamide hydrochloride]
- pIC50 (BTK-WT; Table 10, Formula A-I): ≥ 7.00
- pIC50 (JAK3; Table 10, Formula A-I): 6.00 to 7.00
- pIC50 (LCK): > 7.00

SMILES: NC(=O)c1ncc(N2CCC[C@@H](NC(=O)N3Cc4ccccc4C3)C2)nc1Nc1ccc(C2CCN(C3CCCC3)CC2)cc1 [Example A-5, N-[(3R)-1-(5-carbamoyl-6-{[4-(1-cyclopentylpiperidin-4-yl)phenyl]amino}pyrazin-2-yl)piperidin-3-yl]-2,3-dihydro-1H-isoindole-2-carboxamide hydrochloride]
- pIC50 (BTK-WT; Table 10, Formula A-I): ≥ 7.00
- pIC50 (JAK3; Table 10, Formula A-I): 6.00 to 7.00
- pIC50 (LCK): 6.00 to 7.00

SMILES: CN(C(=O)N[C@@H]1CCCN(c2cnc(C(N)=O)c(Nc3ccc(C4CCN(C5CCCC5)CC4)cc3)n2)C1)c1ccccc1 [Example A-6, 3-{[4-(1-cyclopentylpiperidin-4-yl)phenyl]amino}-5-[(3R)-3-{[methyl(phenyl)carbamoyl]amino}piperidin-1-yl]pyrazine-2-carboxamide]
- pIC50 (BTK-WT; Table 10, Formula A-I): ≥ 7.00
- pIC50 (JAK3; Table 10, Formula A-I): 6.00 to 7.00
- pIC50 (LCK): 6.00 to 7.00

SMILES: CN(C)c1ccc(C(=O)N[C@@H]2CCCN(c3cnc(C(N)=O)c(Nc4ccc(C5CCN(C6CCCC6)CC5)cc4)n3)C2)cc1 [Example A-7, 3-{[4-(1-cyclopentylpiperidin-4-yl)phenyl]amino}-5-[(3R)-3-[4-(dimethylamino)benzamido]piperidin-1-yl]pyrazine-2-carboxamide hydrochloride]
- pIC50 (BTK-WT; Table 10, Formula A-I): ≥ 7.00
- pIC50 (JAK3; Table 10, Formula A-I): 6.00 to 7.00
- pIC50 (LCK): 6.00 to 7.00

SMILES: Cc1cc(Nc2nc(N3CCC[C@@H](NC(=O)Nc4ccccc4)C3)cnc2C(N)=O)sn1 [Example A-9]
- pIC50 (BTK-WT; Table 10, Formula A-I): ≥ 7.00
- pIC50 (LCK): > 7.00

SMILES: Cc1cccc(NC(=O)N[C@@H]2CCCN(c3cnc(C(N)=O)c(Nc4cc(C)ns4)n3)C2)c1 [Example A-10, 3-[(3-methyl-1,2-thiazol-5-yl)amino]-5-[(3R)-3-{[(3-methylphenyl)carbamoyl]amino}piperidin-1-yl]pyrazine-2-carboxamide]
- pIC50 (BTK-WT; Table 10, Formula A-I): ≥ 7.00
- pIC50 (JAK3; Table 10, Formula A-I): 5.00 to 6.00
- pIC50 (LCK): 6.00 to 7.00

SMILES: Cc1cc(Nc2nc(N3CCC[C@@H](NC(=O)Nc4cccnc4)C3)cnc2C(N)=O)sn1 [Example A-11]
- pIC50 (BTK-WT; Table 10, Formula A-I): ≥ 7.00
- pIC50 (JAK3; Table 10, Formula A-I): 5.00 to 6.00
- pIC50 (LCK): 6.00 to 7.00

SMILES: Cc1cc(Nc2nc(N3CCC[C@@H](NC(=O)Nc4ncc(C)s4)C3)cnc2C(N)=O)sn1 [Example A-12]
- pIC50 (BTK-WT; Table 10, Formula A-I): 6.00 to 7.00
- pIC50 (JAK3; Table 10, Formula A-I): 5.00 to 6.00
- pIC50 (LCK): 5.00 to 6.00

SMILES: Cc1cc(Nc2nc(N3CCC[C@@H](NC(=O)NC4CCCCC4)C3)cnc2C(N)=O)sn1 [Example A-13, 5-[(3R)-3-[(cyclohexylcarbamoyl)amino]piperidin-1-yl]-3-[(3-methyl-1,2-thiazol-5-yl)amino]pyrazine-2-carboxamide]
- pIC50 (BTK-WT; Table 10, Formula A-I): ≥ 7.00
- pIC50 (JAK3; Table 10, Formula A-I): 5.00 to 6.00
- pIC50 (LCK): 6.00 to 7.00

SMILES: Cc1cc(Nc2nc(N3CCC[C@@H](NC(=O)Nc4ccc(F)cc4)C3)cnc2C(N)=O)sn1 [Example A-14]
- pIC50 (BTK-WT; Table 10, Formula A-I): ≥ 7.00
- pIC50 (LCK): 6.00 to 7.00

SMILES: COc1ccc(NC(=O)N[C@@H]2CCCN(c3cnc(C(N)=O)c(Nc4cc(C)ns4)n3)C2)cc1 [Example A-15, 5-[(3R)-3-{[(4-methoxyphenyl)carbamoyl]amino}piperidin-1-yl]-3-[(3-methyl-1,2-thiazol-5-yl)amino]pyrazine-2-carboxamide]
- pIC50 (BTK-WT; Table 10, Formula A-I): ≥ 7.00
- pIC50 (LCK): 6.00 to 7.00

SMILES: COc1cccc(NC(=O)N[C@@H]2CCCN(c3cnc(C(N)=O)c(Nc4cc(C)ns4)n3)C2)c1 [Example A-16, 5-[(3R)-3-{[(3-methoxyphenyl)carbamoyl]amino}piperidin-1-yl]-3-[(3-methyl-1,2-thiazol-5-yl)amino]pyrazine-2-carboxamide]
- pIC50 (BTK-WT; Table 10, Formula A-I): ≥ 7.00
- pIC50 (LCK): 6.00 to 7.00

SMILES: Cc1cc(Nc2nc(N3CCC[C@@H](NC(=O)N4Cc5ccccc5C4)C3)cnc2C(N)=O)sn1 [Example A-17, N-[(3R)-1-{5-carbamoyl-6-[(3-methyl-1,2-thiazol-5-yl)amino]pyrazin-2-yl}piperidin-3-yl]-2,3-dihydro-1H-isoindole-2-carboxamide]
- pIC50 (BTK-WT; Table 10, Formula A-I): ≥ 7.00
- pIC50 (JAK3; Table 10, Formula A-I): 6.00 to 7.00
- pIC50 (LCK): 6.00 to 7.00

SMILES: Cc1cc(Nc2cc(N3CCC[C@@H](NC(=O)N4Cc5ccccc5C4)C3)cnc2C(N)=O)sn1 [Example A-18, N-[(3R)-1-{6-carbamoyl-5-[(3-methyl-1,2-thiazol-5-yl)amino]pyridin-3-yl}piperidin-3-yl]-2,3-dihydro-1H-isoindole-2-carboxamide]
- pIC50 (BTK-WT; Table 10, Formula A-I): ≥ 7.00
- pIC50 (JAK3; Table 10, Formula A-I): < 5.00
- pIC50 (LCK): < 5.00

SMILES: Cc1cc(Nc2nc(N3CCC[C@@H](NC(=O)c4ccccc4)C3)cnc2C(N)=O)sn1 [Example A-19, 5-[(3R)-3-benzamidopiperidin-1-yl]-3-[(3-methyl-1,2-thiazol-5-yl)amino]pyrazine-2-carboxamide]
- pIC50 (BTK-WT; Table 10, Formula A-I): ≥ 7.00
- pIC50 (JAK3; Table 10, Formula A-I): 6.00 to 7.00
- pIC50 (LCK): 6.00 to 7.00

SMILES: CS(=O)(=O)c1ccc(Nc2nc(N3CCC[C@@H](NC(=O)Nc4ccccc4)C3)cnc2C(N)=O)cc1 [Example A-42, 3-[(4-methanesulfonylphenyl)amino]-5-[(3R)-3-[(phenylcarbamoyl)amino]piperidin-1-yl]pyrazine-2-carboxamide]
- pIC50 (BTK-WT; Table 10, Formula A-I): ≥ 7.00
- pIC50 (LCK): 6.00 to 7.00

SMILES: CS(=O)(=O)c1ccc(Nc2nc(N3CCC[C@@H](NC(=O)Nc4cccnc4)C3)cnc2C(N)=O)cc1 [Example A-43, 3-[(4-methanesulfonylphenyl)amino]-5-[(3R)-3-{[(pyridin-3-yl)carbamoyl]amino}piperidin-1-yl]pyrazine-2-carboxamide]
- pIC50 (BTK-WT; Table 10, Formula A-I): ≥ 7.00
- pIC50 (LCK): 6.00 to 7.00

SMILES: CC(C)c1ccc(Nc2nc(N3CCC(C(N)=O)CC3)nnc2C(N)=O)cc1 [Example A-91, 3-(4-carbamoylpiperidin-1-yl)-5-(4-isopropylphenylamino)-1,2,4-triazine-6-carboxamide]
- pIC50 (BTK-WT; Table 10, Formula A-I): 6.00 to 7.00
- pIC50 (LCK): < 5.00

SMILES: Cc1cc(Nc2nc(NC3CCC(NC(=O)c4ccccc4)CC3)cnc2C(N)=O)sn1 (stereo not shown) [Example B-4, 5-[(4-benzamidocyclohexyl)amino]-3-[(3-methyl-1,2-thiazol-5-yl)amino]pyrazine-2-carboxamide]
- pIC50 (BTK-WT; Table 11, Formula B-I): ≥ 7.00
- pIC50 (JAK3; Table 11, Formula B-I): > 7.00

SMILES: Cc1cc(Nc2nc(N(C)[C@H]3CCCN(C(=O)c4ccc(N(C)C)cc4)C3)cnc2C(N)=O)sn1 [Example C-9, 5-{[(3S)-1-[4-(dimethylamino)benzoyl]piperidin-3-yl](methyl)amino}-3-[(3-methyl-1,2-thiazol-5-yl)amino]pyrazine-2-carboxamide]
- pIC50 (BTK-WT; Table 12, Formula C-I): 5.00 to 6.00
- pIC50 (JAK3; Table 12, Formula C-I): < 5.00
